Like-named read-outs stand apart in the source and are kept apart here.
Key:
[1] = system: CYP3A4-luc transgene (13 kb human CYP3A4 promoter); settings: mouse, in vivo
Procedure: General methods for evaluating the animal lines were as follows. Tg founders were bred to wild-type FvB mice to generate F1 mice. A female transgenic founder was bred to a wild-type FvB male and a male transgenic founder was bred to a few wild-type FvB females.
A Luciferin stock solution of 30 mg/ml was prepared in sterile PBS.
The route of administration for the drugs and for luciferin was IP. The dose of reagent administration of luciferin substrate and drugs was as follows. Dose of luciferin: 150 mg/kg of a 30 mg/ml luciferin stock was injected IP five minutes before imaging in the IVIS™ (Xenogen Corporation, Alameda, Calif.) system. […] DMSO was administrated as a vehicle control.
Following luciferin administration the animals were anesthetized using gas anesthesia (Isoflurane) and placed in an IVIS™ box (Xenogen Corporation, Alameda, Calif.) for imaging. All animals were imaged before and after chemical administration, and imaged at high resolution (binning 2) for 10 seconds or 1 minute, for males and females, respectively.
NT is the non-treated control. Before each imaging session, mice were injected i.p. with 150 mg/kg luciferin. […] Measurements on each mouse were performed as described above. […] Measurements on each mouse were performed as described above.

hPXR = target: T1, hPXR (Homo sapiens, UniProt O75469); settings: cited from earlier work
T1 sequence (O75469 1-434): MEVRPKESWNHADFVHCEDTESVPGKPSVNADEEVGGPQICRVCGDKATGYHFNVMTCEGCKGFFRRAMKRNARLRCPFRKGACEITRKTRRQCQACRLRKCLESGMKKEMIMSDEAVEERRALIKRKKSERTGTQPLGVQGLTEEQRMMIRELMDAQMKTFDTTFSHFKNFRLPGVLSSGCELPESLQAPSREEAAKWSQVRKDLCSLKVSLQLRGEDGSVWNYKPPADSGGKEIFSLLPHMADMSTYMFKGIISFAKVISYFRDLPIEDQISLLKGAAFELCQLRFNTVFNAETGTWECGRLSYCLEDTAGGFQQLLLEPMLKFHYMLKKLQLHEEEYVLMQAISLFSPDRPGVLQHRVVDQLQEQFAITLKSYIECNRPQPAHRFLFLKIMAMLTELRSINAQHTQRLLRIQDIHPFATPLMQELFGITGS

[2] = cell culture, Xie et al. 2000, Goodwin et al. 1999

| Compound | induction of the transgene CYP3A4-luc [1] | induction of CYP3A4 expression via hPXR (hPXR; [2]) | induction of CYP3A4 expression via hPXR (hPXR) | induction of the transgene CYP3A4-luc ([1]; FVB (CYP3A4-luc transgenic, line #82)) |
| --- | --- | --- | --- | --- |
| CC(=O)[C@H]1[C@H](C#N)C[C@H]2[C@@H]3CC=C4C[C@@H](O)CC[C@]4(C)[C@H]3CC[C@@]21C [PCN, 5-pregnene-3b-OL-20-ONE-16a-Carbonitrile] | induced the transgene CYP3A4-luc better than other three compounds | weaker inducers |  |  |
| CC(=O)[C@H]1CC[C@H]2[C@@H]3CC=C4C[C@@H](O)CC[C@]4(C)[C@H]3CC[C@]12C [Preg, pregnenolone] | all drugs except for Preg induced the transgene |  | weaker inducers |  |
| CCC1(c2ccccc2)C(=O)NC(=O)NC1=O [Phenob, phenobarbitol] | induced the transgene to various degrees |  | relatively better inducers of CYP3A4 expression |  |
| Clc1ccccc1C(c1ccccc1)(c1ccccc1)n1ccnc1 [Clotrim, clotrimazole] |  | relatively better inducers of CYP3A4 expression |  | induced the transgene CYP3A4-luc better than other three compounds |
